Test results as given in article PMC4709073, “Curiouser and Curiouser: The Macrocyclic Lactone, Abamectin, Is also a Potent Inhibitor of Pyrantel/Tribendimidine Nicotinic Acetylcholine Receptors of Gastro-Intestinal Worms” (PLoS ONE, 2016).

Target: T1, Ode-UNC-29:Ode-UNC-63:Ode-UNC-38 (Oesophagostomum dentatum, UniProt E5KIX9+V5J2B2+V5J336)
T1 construct: co-injected with Haemonchus contortus ancillary factors Hco-ric-3, Hco-unc-50, Hco-unc-74; clones from earlier work of the authors
T1 sequence (V5J2B2 21-497): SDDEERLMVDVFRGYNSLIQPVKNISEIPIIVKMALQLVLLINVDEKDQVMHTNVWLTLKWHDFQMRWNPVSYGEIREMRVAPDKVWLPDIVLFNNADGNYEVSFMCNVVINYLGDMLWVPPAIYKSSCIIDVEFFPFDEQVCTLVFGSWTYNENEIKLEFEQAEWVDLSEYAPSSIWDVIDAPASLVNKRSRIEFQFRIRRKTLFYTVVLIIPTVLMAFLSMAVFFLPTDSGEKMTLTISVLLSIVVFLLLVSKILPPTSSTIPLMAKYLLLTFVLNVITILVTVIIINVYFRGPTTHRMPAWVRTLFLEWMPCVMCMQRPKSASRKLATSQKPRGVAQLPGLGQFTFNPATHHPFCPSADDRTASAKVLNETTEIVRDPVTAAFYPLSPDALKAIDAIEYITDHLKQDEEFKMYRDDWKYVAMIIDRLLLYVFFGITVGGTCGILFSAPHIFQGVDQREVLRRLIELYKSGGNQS
T1 sequence (E5KIX9 22-507): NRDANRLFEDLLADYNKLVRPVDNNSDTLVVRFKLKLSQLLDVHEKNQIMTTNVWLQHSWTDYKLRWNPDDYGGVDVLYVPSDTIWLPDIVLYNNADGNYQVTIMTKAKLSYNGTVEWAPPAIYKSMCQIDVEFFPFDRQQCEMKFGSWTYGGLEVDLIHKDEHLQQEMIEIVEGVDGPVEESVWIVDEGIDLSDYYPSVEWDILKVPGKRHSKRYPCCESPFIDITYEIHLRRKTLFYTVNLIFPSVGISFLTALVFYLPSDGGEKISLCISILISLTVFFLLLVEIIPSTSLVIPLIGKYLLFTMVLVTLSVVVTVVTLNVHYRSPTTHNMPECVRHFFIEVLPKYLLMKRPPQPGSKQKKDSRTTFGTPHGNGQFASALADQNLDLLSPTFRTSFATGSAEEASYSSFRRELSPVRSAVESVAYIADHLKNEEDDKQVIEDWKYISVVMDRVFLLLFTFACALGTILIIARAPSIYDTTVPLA
T1 sequence (V5J336 21-507): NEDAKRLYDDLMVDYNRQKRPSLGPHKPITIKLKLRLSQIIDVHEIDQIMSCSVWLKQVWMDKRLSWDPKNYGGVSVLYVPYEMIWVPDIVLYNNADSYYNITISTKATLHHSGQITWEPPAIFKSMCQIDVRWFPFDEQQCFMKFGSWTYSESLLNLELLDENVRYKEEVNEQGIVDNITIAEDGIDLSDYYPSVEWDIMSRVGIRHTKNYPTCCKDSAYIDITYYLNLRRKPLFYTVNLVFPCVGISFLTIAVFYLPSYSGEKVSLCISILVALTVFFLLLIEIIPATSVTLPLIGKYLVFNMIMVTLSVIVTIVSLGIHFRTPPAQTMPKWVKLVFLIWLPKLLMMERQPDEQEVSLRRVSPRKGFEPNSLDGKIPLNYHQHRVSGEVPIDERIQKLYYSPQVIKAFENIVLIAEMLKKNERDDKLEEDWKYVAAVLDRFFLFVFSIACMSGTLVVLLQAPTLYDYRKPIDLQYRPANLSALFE
Test: two-electrode voltage clamp, Xenopus oocytes, agonist concentration-response, Hill fit
Type: cell-based

Compound	EC50
CC(=O)OCC[N+](C)(C)C [acetylcholine]	13 ± 1.6 µM
CN1CCCN=C1/C=C/c1cccs1 [pyrantel]	0.4 µM
